Test results as given in ChEMBL document CHEMBL5728179, “Triazolopyridines” (2020).

Assay: Cellular gamma-Secretase Assay: Human neuroglioma H4 cells overexpressing human APP695 with the Swedish double mutation (K595N/M596L) were plated at 30,000 cells/well/100 μl in 96-well plates in IMDM media containing 10% FCS, […] Hygromycin B and incubated at 37° C., 5% CO2.3-4 hr post plating, compounds are a diluted in media and 50 μl is added as 1.5-fold concentrate to achieve the final concentration. Compound incubation is performed for 24 hr. Final doses typically range from 4 μM down to 0.0013 μM in half-log steps resulting in a eight point dose response curve.Appropriate controls using vehicle only and reference compound were applied to this assay. The final concentration of Me2SO was 0.4%.After incubation at 37° C., 5% CO2, the supernatant was subjected to quantification of secreted Aβ42 by the means of an AlphaLisa assay kit (Human Amyloid beta 1-42 Kit: Cat #AL203C, Perkin Elmer). 20 μl of the cell culture supernatant was transferred to an assay plate. Then 10 μl of a mixture of the AlphaLisa coupled capture antibody and the biotinylated detection antibody was added and incubated for 3 hours at room temperature while softly shaking the assay plate. After a further addition of 20 μl of the Donor beads the assay plate was incubated for 30 min at room temperature and constant shaking without exposure to direct light. The assay plate was then read on a Paradigm AlphaLisa Reader using the build-in program with excitation at 680 nm and emission at 570 nm.The measured signals were then used to calculate IC50 values for inhibition of Aβ42 secretion by nonlinear regression fit analysis using XLfit 5.3 software (IDBS).

Row | EC50 [nM] | SMILES
1 | 43.8 | Cc1cc(N2C[C@H]3CC[C@@H](C2)[C@@H]3Nc2nc3c(C(C)(C)O)ccc(OCC(F)(F)F)n3n2)ncn1
2 | 43.6 | FC(F)(F)COc1cccc2nc(N[C@@H]3[C@@H]4CC[C@H]3CN(c3ccnc(C(F)(F)F)c3)C4)nn12
3 | 11.7 | CC(C)c1ccc(OCC(F)(F)F)n2nc(N[C@@H]3[C@@H]4CC[C@H]3CN(c3ccnc(Cl)c3)C4)nc12
4 | 23.2 | CC(C)c1ccc(OCC(F)(F)F)n2nc(N[C@@H]3[C@@H]4CC[C@H]3CN(c3cnnc(Cl)c3)C4)nc12
5 | 44.8 | CC(C)(O)c1ccc(OCC(F)(F)F)n2nc(N[C@@H]3[C@@H]4CC[C@H]3CN(c3ccnc(C(F)(F)F)c3)C4)nc12
6 | 29.9 | Cc1cc(N2C[C@H]3CC[C@@H](C2)[C@@H]3Nc2nc3c(C)ccc(OCC(F)(F)F)n3n2)ncn1
7 | 46.5 | Cc1ccc(OCC(F)(F)F)n2nc(N[C@@H]3[C@@H]4CC[C@H]3CN(c3cnnc(Cl)c3)C4)nc12
8 | 25.4 | COc1cc(N2C[C@H]3CC[C@@H](C2)[C@@H]3Nc2nc3c(C(C)C)ccc(OCC(F)(F)F)n3n2)ccn1
9 | 33.2 | CC(C)c1ccc(OCC(F)(F)F)n2nc(N[C@@H]3[C@@H]4CC[C@H]3CN(c3ccnc(C(F)(F)F)c3)C4)nc12
10 | 15.6 | COc1cc(N2C[C@H]3CC[C@@H](C2)[C@@H]3Nc2nc3c(C)ccc(OCC(F)(F)F)n3n2)ccn1
11 | 40 | C[C@H](Oc1ccc(C(C)(C)O)c2nc(N[C@@H]3[C@@H]4CC[C@H]3CN(c3cnnc(Cl)c3)C4)nn12)C(F)(F)F
12 | 9.2 | Cc1ccc(OCC(F)(F)F)n2nc(N[C@@H]3[C@@H]4CC[C@H]3CN(c3ccnc(Cl)c3)C4)nc12
13 | 20.6 | Cc1ccc(OCC(F)(F)F)n2nc(N[C@@H]3[C@@H]4CC[C@H]3CN(c3ccnc(C(F)(F)F)c3)C4)nc12

More lines, now with the values behind:

Row | SMILES | EC50 [nM]
14 | COc1cc(Nc2nc3c(C(F)(F)F)ccc(O[C@@H](C)C(F)(F)F)n3n2)ccc1-n1cnc(C)n1 | 40.5
15 | COc1cc(Nc2nc3c(C(C)C)ccc(OCC(F)(F)F)n3n2)ccc1-n1cnc(C)n1 | 26.6
16 | COc1cc(Nc2nc3c(C(C)C)ccc(OCC(F)(F)F)n3n2)ccc1-c1ccnc(C)c1 | 21.2
17 | COc1cc(N2C[C@H]3CC[C@@H](C2)[C@@H]3Nc2nc3c(C(C)C)ccc(O[C@@H](C)C(F)(F)F)n3n2)cnn1 | 14.2
18 | Cc1cc(N2C[C@H]3CC[C@@H](C2)[C@@H]3Nc2nc3c(C(C)(C)O)ccc(O[C@@H](C)C(F)(F)F)n3n2)ncn1 | 34.6
19 | Cc1nnc(N2C[C@H]3CC[C@@H](C2)[C@@H]3Nc2nc3c(C(C)C)ccc(O[C@@H](C)C(F)(F)F)n3n2)o1 | 43.2
20 | Cc1noc(N2C[C@H]3CC[C@@H](C2)[C@@H]3Nc2nc3c(C(C)C)ccc(O[C@@H](C)C(F)(F)F)n3n2)n1 | 49
21 | Cc1cc(N2C[C@H]3CC[C@@H](C2)[C@@H]3Nc2nc3cccc(OCC(F)(F)F)n3n2)sn1 | 7
22 | COc1cc(Nc2nc3c(C(C)(C)O)ccc(O[C@@H](C)C(F)(F)F)n3n2)ccc1-n1cnc(C)n1 | 39
23 | Cc1ncn(-c2ccc(Nc3nc4c(C(C)(C)O)ccc(OCC(F)(F)F)n4n3)cc2OC(F)F)n1 | 45.5
24 | Cc1noc(N2C[C@H]3CC[C@@H](C2)[C@@H]3Nc2nc3c(C(C)C)ccc(OCC(F)(F)F)n3n2)n1 | 37.4
25 | COc1cc(N2C[C@H]3CC[C@@H](C2)C3Nc2nc3c(C(C)C)ccc(O[C@@H](C)C(F)(F)F)n3n2)ccn1 (some centres not stated) | 19.6
26 | Cc1cn(-c2ccc(Nc3nc4c(C(C)C)ccc(OCC(F)(F)F)n4n3)cc2C#N)cn1 | 49.4
27 | Cc1cn(-c2ccc(Nc3nc4c(C(C)(C)O)ccc(O[C@@H](C)C(F)(F)F)n4n3)cc2C#N)cn1 | 37.3
28 | CC(C)c1ccc(O[C@@H](C)C(F)(F)F)n2nc(N[C@@H]3[C@@H]4CC[C@H]3CN(c3cnnc(Cl)c3)C4)nc12 | 13.2
29 | COc1cc(N2C[C@H]3CC[C@@H](C2)[C@@H]3Nc2nc3c(C(C)C)ccc(OCC(F)(F)F)n3n2)cnn1 | 21.2
30 | COc1cc(Nc2nc3c(C(C)(C)O)ccc(O[C@@H](C)C(F)(F)F)n3n2)ccc1-n1cnc(Cl)n1 | 42.2
31 | Cc1ncn(-c2ccc(Nc3nc4c(C(C)C)ccc(OCC(F)(F)F)n4n3)cc2OC(F)F)n1 | 34.2
32 | Cc1cc(N2C[C@H]3CC[C@@H](C2)[C@@H]3Nc2nc3c(C(C)C)ccc(OCC(F)(F)F)n3n2)ncn1 | 38.5
